Reference: PubChem BioAssay (NCI)
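In this assay, cells in 96-well plates receive the compound at five concentrations for 48 hours. Endpoints are linearly interpolated between the surrounding concentrations. The concentration for 50% growth inhibition is given as GI50. TGI: total growth inhibition.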

Legend:
Assay in all cases: inhibition of tumour cell growth, NCI panel, 48 h
HCC-2998 colon = test system: HCC-2998 colon
HCT-116 colon = test system: HCT-116 colon
SF-539 CNS = test system: SF-539 CNS
SF-295 CNS = test system: SF-295 CNS
HCT-15 colon = test system: HCT-15 colon
CAKI-1 renal = test system: CAKI-1 renal
A549 NSCLC = test system: A549 NSCLC
OVCAR-4 ovarian = test system: OVCAR-4 ovarian
NCI-H23 lung = test system: NCI-H23 lung
NCI/ADR-RES ovarian = test system: NCI/ADR-RES ovarian
T-47D breast = test system: T-47D breast
ACHN renal = test system: ACHN renal
M14 melanoma = test system: M14 melanoma
HOP-92 NSCLC = test system: HOP-92 NSCLC
RPMI-8226 leukemia = test system: RPMI-8226 leukemia
SK-MEL-2 melanoma = test system: SK-MEL-2 melanoma
A498 renal = test system: A498 renal
SN12C renal = test system: SN12C renal
NCI-H460 lung = test system: NCI-H460 lung
HT29 colon = test system: HT29 colon
SK-MEL-28 melanoma = test system: SK-MEL-28 melanoma
786-0 renal = test system: 786-0 renal
SNB-75 CNS = test system: SNB-75 CNS
RXF 393 renal = test system: RXF 393 renal
SW-620 colon = test system: SW-620 colon
SK-OV-3 ovarian = test system: SK-OV-3 ovarian
NCI-H226 lung = test system: NCI-H226 lung
SF-268 CNS = test system: SF-268 CNS
U251 CNS = test system: U251 CNS
HOP-62 NSCLC = test system: HOP-62 NSCLC
SK-MEL-5 melanoma = test system: SK-MEL-5 melanoma
EKVX NSCLC = test system: EKVX NSCLC
SNB-19 CNS = test system: SNB-19 CNS
KM12 colon = test system: KM12 colon
OVCAR-3 ovarian = test system: OVCAR-3 ovarian
BT-549 breast = test system: BT-549 breast
DU-145 prostate = test system: DU-145 prostate
UACC-257 melanoma = test system: UACC-257 melanoma
OVCAR-5 ovarian = test system: OVCAR-5 ovarian
HS 578T breast = test system: HS 578T breast
COLO 205 colon = test system: COLO 205 colon
TK-10 renal = test system: TK-10 renal
UACC-62 melanoma = test system: UACC-62 melanoma
MCF7 breast = test system: MCF7 breast
LOX IMVI melanoma = test system: LOX IMVI melanoma
OVCAR-8 ovarian = test system: OVCAR-8 ovarian

Compound: CCN(CC)c1ccc2nc3ccc(N=Nc4ccc(O)cc4)cc3[n+](-c3ccccc3)c2c1
- GI50 (HCC-2998 colon): 4.51 µM
- TGI (HCC-2998 colon): 16.4 µM
- GI50 (HCT-116 colon): 2.66 µM
- TGI (HCT-116 colon): 10.6 µM
- GI50 (SF-539 CNS): 13.3 µM
- TGI (SF-539 CNS): 91.2 µM
- GI50 (SF-295 CNS): 2.86 µM
- TGI (SF-295 CNS): > 100 µM
- GI50 (HCT-15 colon): 6.87 µM
- TGI (HCT-15 colon): > 100 µM
- GI50 (CAKI-1 renal): 10.1 µM
- TGI (CAKI-1 renal): > 100 µM
- GI50 (A549 NSCLC): 4.85 µM
- TGI (A549 NSCLC): > 100 µM
- GI50 (OVCAR-4 ovarian): 1.39 µM
- TGI (OVCAR-4 ovarian): 2.77 µM
- GI50 (NCI-H23 lung): 3.75 µM
- TGI (NCI-H23 lung): 40.3 µM
- GI50 (NCI/ADR-RES ovarian): > 100 µM
- TGI (NCI/ADR-RES ovarian): > 100 µM
- GI50 (T-47D breast): 3.6 µM
- TGI (T-47D breast): 84.1 µM
- GI50 (ACHN renal): 4.1 µM
- TGI (ACHN renal): 21.1 µM
- GI50 (M14 melanoma): 2.29 µM
- TGI (M14 melanoma): 4.79 µM
- GI50 (HOP-92 NSCLC): > 100 µM
- TGI (HOP-92 NSCLC): > 100 µM
- GI50 (RPMI-8226 leukemia): 3.85 µM
- TGI (RPMI-8226 leukemia): > 100 µM
- GI50 (SK-MEL-2 melanoma): 2.65 µM
- TGI (SK-MEL-2 melanoma): > 100 µM
- GI50 (A498 renal): > 100 µM
- TGI (A498 renal): > 100 µM
- GI50 (SN12C renal): 10.7 µM
- TGI (SN12C renal): 36.7 µM
- GI50 (NCI-H460 lung): 3.41 µM
- TGI (NCI-H460 lung): > 100 µM
- GI50 (HT29 colon): 3.15 µM
- TGI (HT29 colon): > 100 µM
- GI50 (SK-MEL-28 melanoma): 5.88 µM
- TGI (SK-MEL-28 melanoma): 21.5 µM
- GI50 (786-0 renal): 26.6 µM
- TGI (786-0 renal): > 100 µM
- GI50 (SNB-75 CNS): 10 µM
- TGI (SNB-75 CNS): 21.9 µM
- GI50 (RXF 393 renal): 10.4 µM
- TGI (RXF 393 renal): 24.8 µM
- GI50 (SW-620 colon): 2.24 µM
- TGI (SW-620 colon): 6.38 µM
- GI50 (SK-OV-3 ovarian): 35.7 µM
- TGI (SK-OV-3 ovarian): > 100 µM
- GI50 (NCI-H226 lung): 11.4 µM
- TGI (NCI-H226 lung): 23.6 µM
- GI50 (SF-268 CNS): 5 µM
- TGI (SF-268 CNS): > 100 µM
- GI50 (U251 CNS): 7.81 µM
- TGI (U251 CNS): > 100 µM
- GI50 (HOP-62 NSCLC): 2.68 µM
- TGI (HOP-62 NSCLC): 15.1 µM
- GI50 (SK-MEL-5 melanoma): 2.92 µM
- TGI (SK-MEL-5 melanoma): 12.2 µM
- GI50 (EKVX NSCLC): 3.59 µM
- TGI (EKVX NSCLC): 64.8 µM
- GI50 (SNB-19 CNS): 11 µM
- TGI (SNB-19 CNS): 22.9 µM
- GI50 (KM12 colon): 3.7 µM
- TGI (KM12 colon): 16.4 µM
- GI50 (OVCAR-3 ovarian): 0.359 µM
- TGI (OVCAR-3 ovarian): 4.02 µM
- GI50 (BT-549 breast): 10.5 µM
- TGI (BT-549 breast): 31.8 µM
- GI50 (DU-145 prostate): 4.68 µM
- TGI (DU-145 prostate): 16.7 µM
- GI50 (UACC-257 melanoma): 3.11 µM
- TGI (UACC-257 melanoma): 9.78 µM
- GI50 (OVCAR-5 ovarian): 20.8 µM
- TGI (OVCAR-5 ovarian): 73.7 µM
- GI50 (HS 578T breast): 1.88 µM
- TGI (HS 578T breast): > 100 µM
- GI50 (COLO 205 colon): 1.26 µM
- TGI (COLO 205 colon): 3.1 µM
- GI50 (TK-10 renal): 3.15 µM
- TGI (TK-10 renal): > 100 µM
- GI50 (UACC-62 melanoma): 4.14 µM
- TGI (UACC-62 melanoma): 23.3 µM
- GI50 (MCF7 breast): 1.9 µM
- TGI (MCF7 breast): 5.11 µM
- GI50 (LOX IMVI melanoma): 2.85 µM
- TGI (LOX IMVI melanoma): 17.3 µM
- GI50 (OVCAR-8 ovarian): 7.42 µM
- TGI (OVCAR-8 ovarian): > 100 µM
